Assay results: patent EP2809669B1, “FUSED PYRROLEDICARBOXAMIDES AND THEIR USE AS PHARMACEUTICALS” (SANOFI, priority 2012, dated 2013)

How the values were obtained:
[1] = system: upper airway; assay: Effect on upper airway collapsibility in the anesthetized pig (negative pressure challenge); assay type: in vivo; conditions: 100 µg/kg intravenous bolus injection, negative pressure -150 mbar
Source text: Effect on upper airway collapsibility in the pig Pharmacological efficacy against obstructive apneas was investigated in chloralose-urethane anesthetized pigs (weight range 20 to 35 kg), a large-animal model for obstructive apneas. Negative pressure generated by a negative pressure device was applied with a cannula to the upper part of the trachea for at least three breaths so that the upper airway was exposed to the negative pressure generated by the device. This caused an upper airway collapse as in an obstructive apnea in control animals treated with vehicle only, and in animals of the treatment group before the test compound was administered (baseline situation). Different levels of negative pressure were used to cause a collapse of the upper airway (-50 mbar, -100 mbar and -150 mbar). These negative pressure challenges were repeated several times before vehicle or test compound was given, and at regular intervals after administration of vehicle or test compound. Whether the upper airway was collapsed or open, was judged by airflow measurement and by the tracheal pressure in the cannula inserted into the upper trachea. In case the upper airway was collapsed by the negative pressure, airflow to the negative pressure device was close to zero. As a second parameter tracheal pressure approached the negative pressure generated by the device during upper airway collapse. Test compounds were administered by intravenous bolus injection. After administration of an effective test compound the upper airway was open during the negative pressure challenges, i.e. not collapsed, as indicated by airflow to the negative pressure device and the fact that tracheal pressure now approached atmospheric pressure in the inspiratory phase where upper airway muscles are activated. In vehicle-treated controls upper airway collapse occurred at every negative pressure challenge at -50 mbar, -100 mbar and -150 mbar. In Table 17, the time after administration of compounds of the formula I from the examples above is shown during which no upper airway collapse occurred (time of inhibition of collapsibility) at a negative pressure of -150 mbar. […]

[2] = biological target: T1, hERG channel (Homo sapiens, UniProt Q12809); assay: Determination of the effect on the hERG channel in CHO cells (whole-cell patch clamp); assay type: cell-based; conditions: CHO cells stably expressing hERG, room temperature, read-out: IC50 value [µM] for hERG inhibition
T1 construct: expressed in transfected cells
Experimental: Determination of the effect on the hERG channel in CHO cells
An inhibition of the hERG (human Ether-a-go-go-Related Gene) potassium channel is unwanted because it can lead to dangerous arrhythmias. The effect of compounds of the formula I on the cloned human cardiac hERG channel was evaluated in an in vitro model using a whole-cell patch-clamping technique. CHO (Chinese hamster ovary) cells stably expressing hERG, the potassium channel underlying IKr currents in human hearts, were grown in HAM's F-12 media supplemented with 10 % fetal bovine serum, 1 x penicillin/streptomycin and 500 µg/ml G418 (Invitrogen, Carlsbad, CA, USA) in an atmosphere of 95 % air and 5 % carbon dioxide. Cells used for patch-clamping were seeded on glass or plastic coverslips 12 to 36 hours before use. hERG channel currents were recorded at room temperature using the whole-cell configuration of the patch clamp technique with an Axopatch 200B amplifier (Axon Instruments, Foster City, CA, USA). Briefly, electrodes (3 to 6 MΩ resistance) were fashioned from TW150F glass capillary tubes (World Precision Instruments, Sarasota, FL, USA) and filled with pipette solution (containing 120 mM potassium aspartate, 20 mM potassium chloride, 4 mM adenosine triphosphate disodium salt, 5 mM HEPES, 1 mM magnesium chloride; pH adjusted to 7.2 with potassium hydroxide). hERG currents were initiated by a positive voltage pulse (20 mV) followed by a negative pulse (-40 mV) and were recorded for off-line analyses. Once hERG current from a cell perfused with external solution (containing 130 mM sodium chloride, 5 mM potassium chloride, 2.8 mM sodium acetate, 1 mM magnesium chloride, 10 mM HEPES, 10 mM glucose, 1 mM calcium chloride; pH adjusted to 7.4 with sodium hydroxide) without the test compound, i.e. control solution, was stabilized, the cell was perfused with external solution containing the test compound at specific concentrations. For each concentration from each cell, peak amplitude of the steady-state hERG tail current at -40 mV was measured in picoAmpere (pA). The peak amplitude in pA for each concentration (up to a maximum concentration of 10 µM) was compared with that for the control solution from the same cell and expressed as percent value of the control. From the percent values at multiple concentrations, IC50 values for inhibition of hERG can be determined.

T1 sequence (Q12809 whole entry): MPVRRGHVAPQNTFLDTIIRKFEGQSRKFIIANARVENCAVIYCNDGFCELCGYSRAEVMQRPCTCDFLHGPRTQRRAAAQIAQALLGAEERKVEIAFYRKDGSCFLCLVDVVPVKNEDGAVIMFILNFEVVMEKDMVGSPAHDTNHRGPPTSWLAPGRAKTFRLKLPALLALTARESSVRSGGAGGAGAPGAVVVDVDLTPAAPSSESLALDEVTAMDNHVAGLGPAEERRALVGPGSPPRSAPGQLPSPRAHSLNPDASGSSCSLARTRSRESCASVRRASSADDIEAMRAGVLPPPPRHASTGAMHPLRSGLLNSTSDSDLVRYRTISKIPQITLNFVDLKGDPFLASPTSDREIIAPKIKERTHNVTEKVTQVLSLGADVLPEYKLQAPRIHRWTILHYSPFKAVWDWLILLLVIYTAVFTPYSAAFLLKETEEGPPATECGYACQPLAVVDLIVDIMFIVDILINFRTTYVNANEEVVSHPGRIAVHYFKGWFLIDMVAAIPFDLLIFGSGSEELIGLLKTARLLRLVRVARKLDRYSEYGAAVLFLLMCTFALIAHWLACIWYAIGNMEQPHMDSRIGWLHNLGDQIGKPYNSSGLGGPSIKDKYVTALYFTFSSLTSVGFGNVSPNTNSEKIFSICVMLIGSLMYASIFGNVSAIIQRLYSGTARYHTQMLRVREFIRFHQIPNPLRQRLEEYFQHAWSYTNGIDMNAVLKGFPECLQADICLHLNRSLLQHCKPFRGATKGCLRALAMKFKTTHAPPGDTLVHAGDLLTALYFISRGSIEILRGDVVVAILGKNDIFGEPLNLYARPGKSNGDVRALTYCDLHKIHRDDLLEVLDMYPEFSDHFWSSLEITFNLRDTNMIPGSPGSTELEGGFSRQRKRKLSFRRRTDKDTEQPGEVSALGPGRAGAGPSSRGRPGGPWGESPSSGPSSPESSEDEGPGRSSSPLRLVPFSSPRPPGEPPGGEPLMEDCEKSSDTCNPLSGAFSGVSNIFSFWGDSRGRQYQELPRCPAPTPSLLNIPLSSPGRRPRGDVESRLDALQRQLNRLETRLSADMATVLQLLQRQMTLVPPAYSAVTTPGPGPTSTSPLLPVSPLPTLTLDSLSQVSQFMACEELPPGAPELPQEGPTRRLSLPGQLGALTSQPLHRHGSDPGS

## CC[C@@H](NC(=O)c1cc(C(=O)N2CCC[C@@H]2C(=O)OC(C)C)n2c1COCC2)c1ccccc1 [16n, (R)-1-[8-((R)-1-Phenyl-propylcarbamoyl)-3,4-dihydro-1H-pyrrolo[2,1-c][1,4]oxazine-6-carbonyl]-pyrrolidine-2-carboxylic acid isopropyl ester]
[1]
  Time of inhibition of collapsibility (at -150 mbar): for 120 min
[2]
  IC50: > 10 µM
